Measurements taken from publication PMC9060980 (Evidence-based Complementary and Alternative Medicine : eCAM, 2022).
Several values for one entry are separate records, joined by “and”; a condition that tells them apart may be missing. Equal values may be shown once. Read-outs that look alike come from different tables or passages of the source.

Experiments:
P-gp = target: T1, P-gp (Homo sapiens, UniProt P08183); test: Permeation of PTX through MDCK–MDR1 cell monolayers; format: in vitro ADME; conditions: dog, PTX alone or with VRP 100 μM
T1 construct: expressed in transfected cells; host or cells: MDCK-MDR1 (Madin-Darby canine kidney cells transfected with human MDR1)
T1 sequence (P08183 whole entry): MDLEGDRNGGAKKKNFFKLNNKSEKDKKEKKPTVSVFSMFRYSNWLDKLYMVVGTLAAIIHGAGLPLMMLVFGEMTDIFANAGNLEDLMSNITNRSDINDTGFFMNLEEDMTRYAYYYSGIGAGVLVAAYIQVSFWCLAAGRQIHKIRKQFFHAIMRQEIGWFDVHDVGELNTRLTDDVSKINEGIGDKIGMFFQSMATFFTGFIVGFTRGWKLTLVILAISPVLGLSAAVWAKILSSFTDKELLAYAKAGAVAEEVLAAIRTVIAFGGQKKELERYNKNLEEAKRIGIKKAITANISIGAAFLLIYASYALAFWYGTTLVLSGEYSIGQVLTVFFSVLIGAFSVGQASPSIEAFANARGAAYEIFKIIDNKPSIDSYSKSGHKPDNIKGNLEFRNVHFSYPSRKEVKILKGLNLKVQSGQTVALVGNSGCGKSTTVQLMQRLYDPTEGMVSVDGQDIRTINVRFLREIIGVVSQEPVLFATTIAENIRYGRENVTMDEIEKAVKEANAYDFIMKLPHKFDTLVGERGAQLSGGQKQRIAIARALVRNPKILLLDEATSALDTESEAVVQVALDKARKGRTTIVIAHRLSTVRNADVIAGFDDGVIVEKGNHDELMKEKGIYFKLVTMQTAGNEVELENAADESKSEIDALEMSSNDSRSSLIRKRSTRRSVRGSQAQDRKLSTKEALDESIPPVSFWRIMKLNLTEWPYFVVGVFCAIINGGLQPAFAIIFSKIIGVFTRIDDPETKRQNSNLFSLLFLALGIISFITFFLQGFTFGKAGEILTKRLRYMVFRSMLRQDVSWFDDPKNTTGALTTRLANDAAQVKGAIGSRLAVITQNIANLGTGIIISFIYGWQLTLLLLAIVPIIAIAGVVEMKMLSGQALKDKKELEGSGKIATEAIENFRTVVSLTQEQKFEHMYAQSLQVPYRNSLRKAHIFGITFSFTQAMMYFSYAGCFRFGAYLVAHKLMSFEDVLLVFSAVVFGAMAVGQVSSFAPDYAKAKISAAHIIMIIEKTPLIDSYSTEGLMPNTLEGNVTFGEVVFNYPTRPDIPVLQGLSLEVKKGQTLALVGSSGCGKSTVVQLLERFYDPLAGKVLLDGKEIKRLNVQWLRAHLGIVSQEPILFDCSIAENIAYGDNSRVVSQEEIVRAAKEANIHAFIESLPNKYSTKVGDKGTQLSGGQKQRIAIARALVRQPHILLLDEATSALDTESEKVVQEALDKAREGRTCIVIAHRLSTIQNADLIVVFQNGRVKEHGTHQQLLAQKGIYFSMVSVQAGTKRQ
Procedure: To evaluate the inhibitory effect of flavonoids or lignoids on P-gp-induced reflux of PTX across the cultured cell monolayer, MDCK–MDR1cells were seeded on to Falcon 24-multiwell insert system at a density of 6 × 10^5 cells/mL. The detailed method is applied as previous research with some modification (such as time points of sampling including 0, 30, 60, 90, 120 min are selected, and C0 of PTX in the apical compartment is 1 μg/mL).
The apical (AP) media volume was 500 μL and the basolateral (BL) volume was 1500 μL.

[1] = Mortality, survival, side effect and body weight of A549 xenograft-bearing mice
Procedure: (§1) Tumor-bearing mice were weighed using an electronic scale and tumor sizes were surveyed with vernier calipers, and these procedures were conducted twice a week. Tumor weight was calculated from the tumor sizes according to the reported formula [30]: tumor volume (mm^3) = (tumor length in mm) × (tumor width in mm)^2/2. One and a half hours after the last administration on Day 34, all mice were sacrificed after blood was collected from the orbital sockets using fine capillaries. […] The serum was separated and analyzed by method described previously.

Caco-2 cells = test: Caco-2 bidirectional transport of paclitaxel; conditions: paclitaxel 1 μg/mL alone or with verapamil 100 μM
Procedure: (§2) The apical (AP) media volume was 500 μL and the basolateral (BL) volume was 1500 μL. […] Verapamil serves as a positive control for this experiment and was added to both compartments prior to initiation. At 30, 60, 90, and 120 min, 100 μL of media was removed from the receiver compartment followed by the addition of 100 μL of preheated buffer as replenishment.

in vitro = conditions: human, Caco-2
Procedure: as §2

[2] = tested on: BCL-2 family proteins' expressions in A549; test: Western blotting of BCL-2 family proteins; format: cell-based, human; conditions: PTX 50 nM, 24 h
Procedure: Total cell extracts were lysed in lysis buffer (Ripa, Solarbio, China), and protein extract (60 μg) was added into each well of 10% gel and separated through gel electrophoresis. Gels were soaked in transfer buffer (30 mM glycine, 16 mM Tris-HCl, and 20% methanol) and proteins in the gels were then blotted to polyvinylidene difluoride (PVDF) membranes. Nonfat dry milk in PBST (137 mM NaCl, […], 100 mM Na2HPO4, 20 mM KH2PO4 0.05% tween 20, pH 7.4) was used for blocking nonspecific binding sites. The polyvinylidene difluoride membranes were then incubated with primary antibodies: anti-BCL-2 mAb (1 : 1000), anti-BAK mAB (1 : 2000), anti-MCL-1 pAb (1 : 3000), anti-pMCL-1 mAb (1 : 2000), anti-cyclinB1 mAb (1 : 1000), or anti-b-actin mAb (1 : 5000). Then, secondary antibodies (anti-mouse 1 : 5000, anti-rabbit–1:5000) were applied to the membranes. The ECL western blotting detection kit was used for detecting protein bands in the membranes. Protein bands were detected using the ECL Plus Kit (Huaan biotech, Hangzhou, China), imaged on Tanon 2000. Densitometry analysis was performed using ImageJ software to calculate the relative expression change after normalizing with β-actin.

A549 tumor = format: in vivo, BALB/c mice; set-up: tumor weight: unit not given beside the values
Procedure: as §1

[3] = Plasma concentration of paclitaxel in A549 xenograft mice; format: in vivo; conditions: BALB/c, mouse, intraperitoneal, 10 mg/kg, plasma concentration of paclitaxel […] after administration, PTX 10 mg/kg I.P., PTX + WAB 10 + 50 mg/kg I.G., Day 34, mean
Procedure: Tumor-bearing mice were weighed using an electronic scale and tumor sizes were surveyed with vernier calipers, and these procedures were conducted twice a week. Tumor weight was calculated from the tumor sizes according to the reported formula [30]: tumor volume (mm^3) = (tumor length in mm) × (tumor width in mm)^2/2. One and a half hours after the last administration on Day 34, all mice were sacrificed after blood was collected from the orbital sockets using fine capillaries. […] The serum was separated and analyzed by method described previously [7].

A549 cells [4] = test: MTT assay in A549; format: cell-based; conditions: Homo sapiens, 50 nM, 24 h, read-out: inhibition of the proliferation of A549 cells
Procedure: 100 μL A549 cells (2 × 10^5 cells/mL) were seeded onto a 96-well plate. […] The same volume of complete culture medium served as the negative control. Then, 20 μl MTT solution (5 mg/mL) was added to each well, and the plates were incubated for 4 h. The medium was replaced by 150 μl DMSO, which solubilized the MTT formazan salt. The absorbance of the solution was measured on a microplate reader (Vrioskan Flash, Thermo Scientific, USA) at 490 nm and the results were expressed as a percentage of the control cells.

A549 cells [5] = test: Flow cytometry with Annexin V/PI staining; format: cell-based, human; conditions: PTX 50 nM, 24 h
Procedure: Afterward, they were washed with PBS, counted, and adjusted to 1 × 10^6 cells/ml. Apoptosis of A549 cells was determined by flow cytometry (FC500; Beckman Coulter, Brea, CA, USA) using the Annexin V-fluorescein isothiocyanate (FITC)/propidium iodide (PI) kit (MULTISCIENCES (LIANKE) BIOTECH, CO., LTD, Hangzhou, China). Staining was performed in accordance with the method described in the manufacturer's instructions. The rate of apoptosis was analyzed using MCF software (Beckman Coulter, Brea, CA, USA).

[6] = PTX 10 mg/kg I.P., PTX + WAB 10 + 50 mg/kg I.G.
[7] = PTX 10 mg/kg I.P., PTX + WAB 10 + 50 mg/kg I.G., Day 34

SMILES: CC(=O)O[C@H]1C(=O)[C@@]2(C)[C@H]([C@H](OC(=O)c3ccccc3)[C@]3(O)C[C@H](OC(=O)[C@H](O)[C@@H](NC(=O)c4ccccc4)c4ccccc4)C(C)=C1C3(C)C)[C@]1(OC(C)=O)CO[C@@H]1C[C@@H]2O [Paclitaxel]
- Papp B→A at 120 min, 1 μg/mL (P-gp): 864 ± 141 nm/s
- Survival rate [1, 6]: 66.7%
- Mortality (dead mice) [1, 7]: 4
- mortality % ([1]; PTX group, PTX+WAB 10+50 mg/kg, Day 34): 33.33%
- Papp AP–BL of paclitaxel (Caco-2 cells): 0.25 ± 0.43 ×10^−6 cm/s
- Papp BL–AP of paclitaxel (Caco-2 cells): 75.26 ± 7.43 ×10^−6 cm/s
- Papp A→B at 120 min, 1 μg/mL (in vitro): 2.52 nm/s
- Papp B→A at 120 min, 1 μg/mL (in vitro): 753 nm/s
- expressions of cyclinB1, BAK, BCL-2, MCL-1, and pMCL-1 [2]: significantly upregulated
- tumor volume, group mean (A549 tumor; Day 1, PTX 10 mg/kg I.P., PTX+WAB 10+50 mg/kg I.G.): 80.63 mm^3
- tumor volume, group mean (A549 tumor; Day 4, PTX 10 mg/kg I.P., PTX+WAB 10+50 mg/kg I.G.): 88.36 mm^3
- tumor volume, group mean (A549 tumor; Day 7, PTX 10 mg/kg I.P., PTX+WAB 10+50 mg/kg I.G.): 123.87 mm^3
- tumor volume, group mean (A549 tumor; Day 10, PTX 10 mg/kg I.P., PTX+WAB 10+50 mg/kg I.G.): 140.25 mm^3
- tumor volume, group mean (A549 tumor; Day 13, PTX 10 mg/kg I.P., PTX+WAB 10+50 mg/kg I.G.): 170.16 mm^3
- tumor volume, group mean (A549 tumor; Day 16, PTX 10 mg/kg I.P., PTX+WAB 10+50 mg/kg I.G.): 131.58 mm^3
- tumor volume, group mean (A549 tumor; Day 19, PTX 10 mg/kg I.P., PTX+WAB 10+50 mg/kg I.G.): 181.34 mm^3
- tumor volume, group mean (A549 tumor; Day 22, PTX 10 mg/kg I.P., PTX+WAB 10+50 mg/kg I.G.): 174.31 mm^3
- tumor volume, group mean (A549 tumor; Day 25, PTX 10 mg/kg I.P., PTX+WAB 10+50 mg/kg I.G.): 203.28 mm^3
- tumor volume, group mean (A549 tumor; Day 28, PTX 10 mg/kg I.P., PTX+WAB 10+50 mg/kg I.G.): 256.78 mm^3
- tumor volume, group mean (A549 tumor; Day 31, PTX 10 mg/kg I.P., PTX+WAB 10+50 mg/kg I.G.): 273.56 mm^3
- tumor volume, group mean (A549 tumor; Day 34, PTX 10 mg/kg I.P., PTX+WAB 10+50 mg/kg I.G.): 263.74 mm^3
- activity against A549 tumor growth (A549 tumor; [6]): weak inhibitory activity against A549
- Inhibition rate (A549 tumor; [7]): 38.60 ± 64.87%
- tumor weight (A549 tumor; PTX 10 mg/kg I.P., PTX+WAB 10+50 mg/kg I.G., Day 34, individual animals, listed as PTX): 0.2469 and 0.1592 and 0.156 and 0.1923 and 0.1802 and 0.1183 and 0.1699
- Mean (growth factor) (A549 tumor; PTX 10 mg/kg, PTX+WAB 10+50 mg/kg, from tumor size Day 34/Day 1): 13.43
- concentration at […] [3]: 0.201 µg/mL
- inhibition at 0.05 µM (A549 cells [4]): ~28%
- percentage of cells Annexin V positive (A549 cells [5]): approx. 16.3%
- apoptosis (A549 cells [5]; with or without HDS-2 80 μg/mL): 17.5%
- percentage of cells PI positive (necrosis) (A549 cells [5]; with or without HDS-2 80 μg/mL): approx. 22.8%
